Results from patent US11993574B2, “Pyrazole and imidazole compounds for inhibition of IL-17 and RORgamma” (REATA PHARMACEUTICALS, INC., priority 2018, dated 2024).
pIC50: −log10 of the molar value.

What was measured:
Format in all cases: cell-based
[1] = target: T1, Human RAR-related Orphan Receptor Gamma (RORγ) (Homo sapiens, UniProt P51449); test: RORγ assay (GAL4-RORγ hybrid luciferase reporter, Indigo Biosciences); conditions: inverse-agonist activity, GAL4-RORγ reporter cells, 23 hours
T1 sequence (P51449 269-508 limits assumed): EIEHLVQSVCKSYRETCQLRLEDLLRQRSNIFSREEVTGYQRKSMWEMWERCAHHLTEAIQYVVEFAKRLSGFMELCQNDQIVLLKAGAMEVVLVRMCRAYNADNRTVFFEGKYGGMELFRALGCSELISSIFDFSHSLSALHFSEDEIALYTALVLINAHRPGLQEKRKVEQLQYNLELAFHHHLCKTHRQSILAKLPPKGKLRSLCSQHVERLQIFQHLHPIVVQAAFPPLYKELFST
In short: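 […]engineered human reporter cell line expressing GAL4-DBD/RORγ-LBD hybrid with GAL4-UAS luciferase; constitutive activity measured as inverse agonism. Cells treated with compound (7.8-2000 nM) for 23 h at 37 °C; luminescence normalized to DMSO, IC50 by variable-slope fit, with parallel viability readout to flag non-specific inhibition.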

[2] = test system: Nrf2 transcription factor; test: AREc32 luciferase reporter assay; conditions: Homo sapiens; AREc32 cells, 19 hours; concentration required to increase GST ARE luciferase reporter activity by 2-fold; read-out: NRF2 ARE 2-Fold (EC2×)
In short: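 AREc32 cells (MCF-7 with firefly luciferase under eight rat GSTA2 ARE copies) treated 19 h with compound (0.4-200 nM or 3.9-2000 nM) in triplicate. Luminescence normalized to DMSO as fold-induction, capped at 50-fold. EC2× = concentration giving 2-fold reporter increase, interpolated from variable-slope fit.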

[3] = test system: IL-17A; test: IL-17 release from differentiated primary human T-cells (IL-17A HTRF assay); conditions: primary human CD4+ T cells differentiated into Th17 cells, 45-hour incubation, IL-17A in supernatant; read-out: hIL17 IC50
In short: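 Primary human CD4+ T cells (~2×10^5/well) given compound (2–500 or 4–1000 nM, 0.1% DMSO), CD3/CD28-activated and Th17-differentiated (TGF-β, IL-6, IL-23, IL-1β) for 45 h at 37° C. Supernatant IL-17A by HTRF against standard curve, normalized to vehicle; IC50 by variable-slope regression, with parallel CyQuant viability.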

## Cc1ccccc1-c1nn(-c2ccc(-c3ccccc3)cc2)c2c1CC[C@@H]1[C@@H](C)C(=O)C(C#N)=C[C@@]21C [T72]
[1]
  pIC50: 6.86
[2]
  EC (2-fold): 0.205 µM
[3]
  pIC50: 8.00

## C[C@H]1C(=O)C(C#N)=C[C@@]2(C)c3c(c(-c4ccc(CO)cc4)nn3-c3ccc(-c4ccccc4)cc3)CC[C@H]12 [T73]
[1]
  pIC50: 7.40
[2]
  EC (2-fold): 0.159 µM
[3]
  pIC50: 7.52

## C[C@H]1C(=O)C(C#N)=C[C@@]2(C)c3c(c(-c4ccc(CF)cc4)nn3-c3ccc(-c4ccccc4)cc3)CC[C@H]12 [T74]
[1]
  pIC50: 6.95
[2]
  EC (2-fold): 0.182 µM
[3]
  pIC50: 7.80

## C[C@H]1C(=O)C(C#N)=C[C@@]2(C)c3c(c(C4CC4)nn3-c3ccc(-c4ccccc4)cc3)CC[C@H]12 [T75]
[1]
  pIC50: 7.17
[2]
  EC (2-fold): 0.248 µM
[3]
  pIC50: 6.89

## C[C@H]1C(=O)C(C#N)=C[C@@]2(C)c3c(c(C4CCCCC4)nn3-c3ccc(-c4ccccc4)cc3)CC[C@H]12 [T76]
[1]
  pIC50: 7.14
[2]
  EC (2-fold): 0.465 µM
[3]
  pIC50: 7.52

## C[C@H]1C(=O)C(C#N)=C[C@@]2(C)c3c(c(N4CCOCC4)nn3-c3ccc(-c4ccccc4)cc3)CC[C@H]12 [T77]
[1]
  pIC50: 6.95
[2]
  EC (2-fold): 0.908 µM
[3]
  pIC50: 7.17

## C[C@H]1C(=O)C(C#N)=C[C@@]2(C)c3c(c(NC4CCC4)nn3-c3ccc(-c4ccccc4)cc3)CC[C@H]12 [T78]
[1]
  pIC50: 7.21
[2]
  EC (2-fold): 0.534 µM
[3]
  pIC50: 7.32

## CNc1nn(-c2ccc(-c3ccccc3)cc2)c2c1CC[C@@H]1[C@@H](C)C(=O)C(C#N)=C[C@@]21C [T79]
[1]
  pIC50: 6.85
[2]
  EC (2-fold): 1.04 µM
[3]
  pIC50: 6.75

## C[C@H]1C(=O)C(C#N)=C[C@@]2(C)c3c(c(N(C)C4CCC4)nn3-c3ccc(-c4ccccc4)cc3)CC[C@H]12 [T80]
[1]
  pIC50: 7.15
[2]
  EC (2-fold): 0.347 µM
[3]
  pIC50: 7.77

## C[C@H]1C(=O)C(C#N)=C[C@@]2(C)c3c(c(-c4ccccn4)nn3-c3ccc(-c4ccccc4)cc3)CC[C@H]12 [T81]
[1]
  pIC50: 7.17
[2]
  EC (2-fold): 0.243 µM
[3]
  pIC50: 7.52

## C[C@H]1C(=O)C(C#N)=C[C@@]2(C)c3c(c(-c4ccccc4F)nn3-c3ccc(-c4cncnc4)cc3)CC[C@H]12 [T82]
[1]
  pIC50: 7.36
[2]
  EC (2-fold): 0.208 µM
[3]
  pIC50: 7.20

## Cc1cc(-c2ccc(-n3nc(-c4ccccc4F)c4c3[C@]3(C)C=C(C#N)C(=O)[C@H](C)[C@H]3CC4)cc2)cnn1 [T83]
[1]
  pIC50: 7.48
[2]
  EC (2-fold): 0.139 µM
[3]
  pIC50: 7.70

## C[C@H]1C(=O)C(C#N)=C[C@@]2(C)c3c(c(-c4ccccc4F)nn3-c3ccc(-c4ccncc4)cc3)CC[C@H]12 [T84]
[1]
  pIC50: 7.64
[2]
  EC (2-fold): 0.121 µM
[3]
  pIC50: 7.48

## C[C@H]1C(=O)C(C#N)=C[C@@]2(C)c3c(c(-c4ccccc4F)nn3-c3ccc(N4CCOCC4)cc3)CC[C@H]12 [T85]
[1]
  pIC50: 7.30
[2]
  EC (2-fold): 0.079 µM
[3]
  pIC50: 7.34

## C[C@H]1C(=O)C(C#N)=C[C@@]2(C)c3c(c(-c4ccccc4F)nn3-c3nnc(-c4ccccc4)n3C)CC[C@H]12 [T86]
[1]
  pIC50: 6.45
[2]
  EC (2-fold): 1.48 µM
[3]
  pIC50: 7.06

## C[C@H]1C(=O)C(C#N)=C[C@@]2(C)c3c(c(-c4ccccc4F)nn3-c3nc(-c4ccccc4)cs3)CC[C@H]12 [T87]
[1]
  pIC50: 6.16
[2]
  EC (2-fold): 1.26 µM
[3]
  pIC50: 7.57

## C[C@H]1C(=O)C(C#N)=C[C@@]2(C)c3c(c(-c4ccccc4F)nn3-c3nc4cc(C(F)(F)F)ccc4s3)CC[C@H]12 [T88]
[1]
  pIC50: 6.66
[2]
  EC (2-fold): 0.743 µM
[3]
  pIC50: 7.96

## C[C@H]1C(=O)C(C#N)=C[C@@]2(C)c3c(c(-c4ccccc4F)nn3-c3nc4ccc(Cl)cc4s3)CC[C@H]12 [T89]
[1]
  pIC50: 6.60
[2]
  EC (2-fold): 0.482 µM
[3]
  pIC50: 7.89

## C[C@H]1C(=O)C(C#N)=C[C@@]2(C)c3c(c(-c4ccccc4F)nn3-c3nc4ccccc4n3C)CC[C@H]12 [T90]
[1]
  pIC50: 6.87
[2]
  EC (2-fold): 1.31 µM
[3]
  pIC50: 7.24

## C[C@H]1C(=O)C(C#N)=C[C@@]2(C)c3c(c(-c4ccccc4F)nn3-c3nc4ccccc4[nH]3)CC[C@H]12 [T91]
[1]
  pIC50: < 5.70
[2]
  EC (2-fold): > 2 µM
[3]
  pIC50: < 6.30

## C[C@H]1C(=O)C(C#N)=C[C@@]2(C)c3c(c(-c4ccccc4F)nn3-c3nc4ccccc4s3)CC[C@H]12 [T92]
[1]
  pIC50: 6.47
[2]
  EC (2-fold): 0.491 µM
[3]
  pIC50: 7.55

## C[C@H]1C(=O)C(C#N)=C[C@@]2(C)c3c(c(-c4ccccc4F)nn3-c3ccc(-c4ccncn4)cc3)CC[C@H]12 [T93]
[1]
  pIC50: 7.38
[2]
  EC (2-fold): 0.139 µM
[3]
  pIC50: 7.43

## Cc1nc(-c2ccc(-n3nc(-c4ccccc4F)c4c3[C@]3(C)C=C(C#N)C(=O)[C@H](C)[C@H]3CC4)cc2)no1 [T94]
[1]
  pIC50: 7.19
[2]
  EC (2-fold): 0.146 µM
[3]
  pIC50: 7.62

## Cc1noc(-c2ccc(-n3nc(-c4ccccc4F)c4c3[C@]3(C)C=C(C#N)C(=O)[C@H](C)[C@H]3CC4)cc2)n1 [T95]
[1]
  pIC50: 7.21
[2]
  EC (2-fold): 0.185 µM
[3]
  pIC50: 7.40

## Cc1noc(-c2nn(-c3ccc(-c4ccccc4)cc3)c3c2CC[C@@H]2[C@@H](C)C(=O)C(C#N)=C[C@@]32C)n1 [T96]
[1]
  pIC50: 7.23
[2]
  EC (2-fold): 0.258 µM
[3]
  pIC50: 7.49

## C[C@H]1C(=O)C(C#N)=C[C@@]2(C)c3c(c(-c4ccccc4)nn3-c3ccc(-c4ccccc4)cn3)CC[C@H]12 [T97]
[1]
  pIC50: 6.97
[2]
  EC (2-fold): 0.597 µM
[3]
  pIC50: 7.42

## C[C@H]1C(=O)C(C#N)=C[C@@]2(C)c3c(c(-c4ccncn4)nn3-c3nc4ccccc4s3)CC[C@H]12 [T98]
[1]
  pIC50: 6.54
[2]
  EC (2-fold): 0.275 µM
[3]
  pIC50: 7.11

## C[C@H]1C(=O)C(C#N)=C[C@@]2(C)c3c(c(-c4cccnc4)nn3-c3nc4ccccc4s3)CC[C@H]12 [T99]
[1]
  pIC50: 6.35
[2]
  EC (2-fold): 0.329 µM
[3]
  pIC50: 7.06

## C[C@H]1C(=O)C(C#N)=C[C@@]2(C)c3c(c(Nc4ccccc4)nn3-c3ccc(-c4ccccc4)cc3)CC[C@H]12 [T100]
[1]
  pIC50: 6.96
[2]
  EC (2-fold): 0.319 µM
[3]
  pIC50: 7.80

## C[C@H]1C(=O)C(C#N)=C[C@@]2(C)c3c(c(-c4ccncc4)nn3-c3ccc(-c4cncc(F)c4)cc3)CC[C@H]12 [T101]
[1]
  pIC50: 7.27
[2]
  EC (2-fold): 0.353 µM
[3]
  pIC50: 7.29

## Cc1cc(-c2ccc(-n3nc(-c4cccnc4)c4c3[C@]3(C)C=C(C#N)C(=O)[C@H](C)[C@H]3CC4)cc2)cnn1 [T102]
[1]
  pIC50: 7.05
[2]
  EC (2-fold): 0.918 µM
[3]
  pIC50: 7.25

## C[C@H]1C(=O)C(C#N)=C[C@@]2(C)c3c(c(-c4cccnc4)nn3-c3ccc(-c4cncc(F)c4)cc3)CC[C@H]12 [T103]
[1]
  pIC50: 7.33
[2]
  EC (2-fold): 0.365 µM
[3]
  pIC50: 7.51

## C[C@H]1C(=O)C(C#N)=C[C@@]2(C)c3c(c(-c4cccc(F)c4)nn3-c3ccnc4ccccc34)CC[C@H]12 [T104]
[1]
  pIC50: 6.68
[2]
  EC (2-fold): 0.638 µM
[3]
  pIC50: 7.21

## C[C@H]1C(=O)C(C#N)=C[C@@]2(C)c3c(c(-c4ccc(F)cc4)nn3-c3ccc(-c4cncc(F)c4)cc3)CC[C@H]12 [T105]
[1]
  pIC50: 7.17
[2]
  EC (2-fold): 0.361 µM
[3]
  pIC50: 7.68

## Cc1noc(-c2ccc(-n3nc(-c4ccc(F)cc4)c4c3[C@]3(C)C=C(C#N)C(=O)[C@H](C)[C@H]3CC4)cc2)n1 [T106]
[1]
  pIC50: 7.08
[2]
  EC (2-fold): 0.29 µM
[3]
  pIC50: 7.57

## Cc1noc(-c2ccc(-n3nc(-c4cccnc4)c4c3[C@]3(C)C=C(C#N)C(=O)[C@H](C)[C@H]3CC4)cc2)n1 [T107]
[1]
  pIC50: 6.95
[2]
  EC (2-fold): 0.505 µM
[3]
  pIC50: 7.06

## Cc1cc(-c2ccc(-n3nc(-c4nc(C)no4)c4c3[C@]3(C)C=C(C#N)C(=O)[C@H](C)[C@H]3CC4)cc2)cnn1 [T108]
[1]
  pIC50: 6.81
[2]
  EC (2-fold): 1.25 µM
[3]
  pIC50: 6.65

## Cc1noc(-c2nn(-c3ccc(-c4cccnc4)cc3)c3c2CC[C@@H]2[C@@H](C)C(=O)C(C#N)=C[C@@]32C)n1 [T109]
[1]
  pIC50: 7.05
[2]
  EC (2-fold): 0.543 µM
[3]
  pIC50: 6.79

## Cc1cc(-c2ccc(-n3nc(-c4noc(C)n4)c4c3[C@]3(C)C=C(C#N)C(=O)[C@H](C)[C@H]3CC4)cc2)cnn1 [T110]
[1]
  pIC50: 6.71
[2]
  EC (2-fold): 1.31 µM
[3]
  pIC50: 6.90

## C[C@H]1C(=O)C(C#N)=C[C@@]2(C)c3nc(C4CCCCC4)n(-c4ccccc4)c3CC[C@H]12 [T113]
[1]
  pIC50: 6.76
[2]
  EC (2-fold): > 1 µM
[3]
  pIC50: 6.74

## C[C@H]1C(=O)C(C#N)=C[C@@]2(C)c3nn(-c4ccc(Cl)cc4)c(-c4ccccc4)c3CC[C@H]12 [T114]
[1]
  pIC50: 6.97
[2]
  EC (2-fold): 0.894 µM
[3]
  pIC50: 6.29

## C[C@H]1C(=O)C(C#N)=C[C@@]2(C)c3nn(-c4ccccc4)c(-c4ccccc4)c3CC[C@H]12 [T115]
[1]
  pIC50: 7.11
[2]
  EC (2-fold): 0.466 µM
[3]
  pIC50: 6.54
